Reference: the NIST ThermoML archive (doi:10.1016/j.jct.2012.11.020)

Legend:
[1] = 100 kPa, Liquid; for viscosity: Cone and plate viscometry; for mass density: Vibrating tube method; for electrical conductivity: Alternating current cell with electrodes
[2] = xn = mol fraction of the nth substance listed; conditions: 100 kPa, Liquid, x2 = 0; for viscosity: Cone and plate viscometry; for mass density: Vibrating tube method

C1CC[NH2+]C1.O=[N+]([O-])[O-] [pyrrolidinium nitrate]
[1]
Conditions | electrical conductivity [S/m] | mass density [kg/m3] | viscosity [mPa·s]
283.15 K | – | 1235 | 58.87
284.15 K | 2.93 | – | –
293.15 K | 3.71 | 1228 | 40.29
298.15 K | 4.22 | – | –
303.15 K | – | 1220.4 | 28.81
304.15 K | 4.94 | – | –
313.15 K | 5.97 | 1213.1 | 20.91
323.15 K | 7.17 | 1205.5 | 16.7
333.15 K | 8.51 | 1197.2 | 13.3
343.15 K | – | 1190.2 | 11.17
344.95 K | 9.3 | – | –
353.15 K | – | 1182 | 9.28
353.65 K | 10.5 | – | –

CC1COC(=O)O1 (configuration not stated) [4-methyl-1,3-dioxolan-2-one] + C1CC[NH2+]C1.O=[N+]([O-])[O-]
[2]
Conditions | mass density [kg/m3] | viscosity [mPa·s]
283.15 K | 1216.3 | 4.25
293.15 K | 1205.2 | 2.96
303.15 K | 1194.5 | 2.2
313.15 K | 1183.9 | 1.8
323.15 K | 1173.4 | 1.56
333.15 K | 1162.9 | 1.4
343.15 K | 1152.3 | 1.26
353.15 K | 1141.6 | 1.15

CC1COC(=O)O1 (configuration not stated) [4-methyl-1,3-dioxolan-2-one]
[1]
Conditions | mass density [kg/m3] | viscosity [mPa·s]
283.15 K | 1216.3 | 4.25
293.15 K | 1205.2 | 2.96
303.15 K | 1194.5 | 2.2
313.15 K | 1183.9 | 1.8
323.15 K | 1173.4 | 1.56
333.15 K | 1162.9 | 1.4
343.15 K | 1152.3 | 1.26
353.15 K | 1141.6 | 1.15
